The text below walks through data of PMC9603521, “WYBQ-4: a New Bactericidal Agent against Methicillin-Resistant Staphylococcus aureus” (Microbiology Spectrum, 2022).

Values after ≈ are worked out from the molar mass of the structure shown.

One may read the MIC as the lowest concentration found to suppress growth. As a reminder, the Kd is the constant that tells how readily two partners part at equilibrium. Low values mean tighter binding, high ones weaker binding.

The test system of test [1] is methicillin-susceptible Staphylococcus epidermidis (MSSE) 35984. Briefly: MIC by broth microdilution (CLSI). The class given is cell-based.
The subject of the next test is Enterococcus faecium. Briefly: MIC by broth microdilution (CLSI). Type of test: cell-based. The following applies: compared to that against Staphylococcus.
In another test the target is PBP2a (Staphylococcus aureus, UniProt P07944). Briefly: Dissociation equilibrium constant (Ks) by BOCILLIN FL method. The class given is binding, MRSA. As to the method: Α = A + ∆ε E (k∗ ∕ (k∗ + k∗)(1 − exp (−(k∗ + k∗)t)) + k N ∆ε Ε t (2)
Where kn* is the pseudo-first-order rate constant for acylation by nitrocefin at the concentration (N0) employed (0.1 mM), ki* the pseudo-first-order rate constant for the reaction of PBP2a with the WYBQ-4, E0 the initial enzyme concentration (2.5 µM), and k0 the second-order rate constant of nonspecific nitrocefin hydrolysis. Second-order rate constants (ki) for acylation were calculated from a linear least-squares fit to a plot of the apparent first-order rate constants (ki*) against the concentration of WYBQ-4. All plots were linear for the concentrations of WYBQ-4 used.
Determination of dissociation equilibrium constants (Ks) of WYBQ-4 and PBP2a The dissociation equilibrium constant (Ks) of PBP2a with WYBQ-4 were determined by the BOCILLIN method (2), as previously described. […] Samples (30 μL) were loaded onto a 10% SDS-polyacrylamide gel, which was developed and then observed using a fluorescence imager to calculate the grayscale curve. […]
The deacylation rate constants for wild-type PBP2a were determined using BOCILLIN FL as a reporter molecule. […]
The mixture was diluted 5 times with buffer and incubated at room temperature for different time intervals. […] Grayscale analysis was performed by imageJ and the rate constant k3 for the deacylation reaction of WYBQ-4 with PBP2a was determined based on eqn (3): […]

The test system of the next test is MSSA ATCC 29213. Briefly: Postantibiotic effect (viable plate count). Type of test: cell-based, Staphylococcus aureus. The conditions noted are these: 1 h exposure. As to the method:
The postantibiotic effect (PAE) of WYBQ-4 against MSSA 29213 was determined in MHB agar using the viable plate count method ([39]). […] After incubation at 37°C for 1 h, WYBQ-4 was removed by centrifugation and washing with phosphate-buffered saline (PBS). Subsequently, fresh MHB medium was added to resuspend the bacteria, and the mixture was incubated at 37°C with shaking. The number of colonies was counted by taking 10 μL of bacteria at 1-h intervals and applying them to BHI agar plates after appropriate dilution. PAE duration was calculated as follows: time (h) for bacteria to return to log-phase growth after drug treatment – time (h) for the control group to return to log-phase growth ([40]).

The test system of a further test is clinically isolated MRSA. As to the kind of experiment: MIC against clinical isolates. The class given is cell-based, Staphylococcus aureus. The following applies: controls moxalactam and cefepime. The protocol:
(§1) The clinical strains of MRSA and MSSA isolated in Beijing, Sichuan, and Shanghai in the last 3 years totaled more than 300 strains. Clinical isolates were stored at −80°C in 20% glycerol-rich brain heart infusion (BHI) and passaged twice on Trypticase soy agar prior to the experiment. Before the experiment, 16s RNA identification was performed, and then PCR was used to distinguish MRSA and MSSA by identifying the mecA gene. Furthermore, the MIC of cefoxitin against clinical isolates was tested again. The drug sensitivity results were judged according to the criteria established by the American Society for Clinical Laboratory Standardization. MRSA was determined by a cefoxitin MIC of ≥8 μg/mL ([36]). Finally, 100 strains each of MRSA and MSSA were randomly selected from the identified strains for subsequent experiments. All chemical reagents and antibiotics were purchased from Sigma (St. Louis, MO). S. aureus was grown at 30°C in BHI broth (Oxoid) with constant shaking or on BHI agar plates unless otherwise noted. […]
(§2) The antibacterial spectrum and susceptibility of WYBQ-4 against MRSA USA300, MSSA 29213, and clinically isolated S. aureus were determined using a broth microdilution method following the guidelines outlined by the Clinical and Laboratory Standards Institute (CLSI) ([37], [38]). […] The absorbance was measured at 600 nm, and experiments were repeated in three biological replicates.

Another test deals with clinically isolated MSSA. As to the kind of experiment: MIC against clinical isolates. The class given is cell-based, Staphylococcus aureus. The following applies: controls moxalactam and cefepime. The protocol: as §1, §2
For the next test, the system named is clinical isolate SA1B2B. Briefly: Mouse systemic infection model. Type of test: in vivo, mice. The conditions noted are these: different doses. The protocol:
(§3) The S. aureus-induced systemic infection model of mice (6-week-old female C57BL/6J mice) was established as previously described ([46]). […] The mice infected in the same way were treated with physiological saline as an infection control group. The mock group was not infected with S. aureus, and the 7-day mortality of the mice in each group was calculated.

The test system of another test is clinical isolate SA28. As to the kind of experiment: Mouse systemic infection model. The class given is in vivo, mice. The following applies: different doses. As to the method: as §3
In test [2] the test system is MRSA USA300. As to the kind of experiment: Mouse systemic infection model. The class given is in vivo, mice. The following applies: USA300 5 × 10^7 CFU, 150 mg/kg, tail intravenous injection at 0 and 3 h, 7-day. As to the method: as §3
Another test concerns Gram-negative bacteria. As to the kind of experiment: MIC by broth microdilution (CLSI). The conditions noted are these: compared to that against Staphylococcus. The class given is cell-based.
In test [3] the test system is methicillin-susceptible Staphylococcus aureus (MSSA) 29213. Briefly: MIC by broth microdilution (CLSI). The class given is cell-based. The protocol:
as §2
On the technique in general: In broth dilution the organism is exposed to a series of concentrations in liquid medium.

For test [4], the system named is MRSA USA300. As to the kind of experiment: MIC by broth microdilution (CLSI). Type of test: cell-based. The conditions noted are these: Staphylococcus aureus. The protocol:
as §2

The subject of the next test is Enterococcus faecalis. Briefly: MIC by broth microdilution (CLSI). The following applies: compared to that against Staphylococcus. The class given is cell-based.

Sequence of PBP2a (P07944 whole entry): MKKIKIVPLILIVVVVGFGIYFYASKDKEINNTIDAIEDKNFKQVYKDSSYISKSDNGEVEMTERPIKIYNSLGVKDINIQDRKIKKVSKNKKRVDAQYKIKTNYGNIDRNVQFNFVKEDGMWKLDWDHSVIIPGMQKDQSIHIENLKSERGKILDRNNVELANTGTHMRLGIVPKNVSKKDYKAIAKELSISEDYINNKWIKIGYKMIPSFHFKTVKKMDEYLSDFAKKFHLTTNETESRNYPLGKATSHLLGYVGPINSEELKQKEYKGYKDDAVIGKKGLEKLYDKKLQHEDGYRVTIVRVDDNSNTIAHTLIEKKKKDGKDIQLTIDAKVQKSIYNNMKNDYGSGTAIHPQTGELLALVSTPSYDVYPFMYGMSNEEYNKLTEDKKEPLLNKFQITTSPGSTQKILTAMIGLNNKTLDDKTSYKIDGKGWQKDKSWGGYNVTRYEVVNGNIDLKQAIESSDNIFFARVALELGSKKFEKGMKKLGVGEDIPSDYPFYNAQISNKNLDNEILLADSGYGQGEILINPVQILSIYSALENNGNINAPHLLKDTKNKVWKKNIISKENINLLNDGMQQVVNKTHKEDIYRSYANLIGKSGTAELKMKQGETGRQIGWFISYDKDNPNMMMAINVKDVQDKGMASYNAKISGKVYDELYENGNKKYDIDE

Turning to `C#CCO[C@@]1(NC(=O)CSc2cccc(C)c2)C(=O)N2C(C(=O)O)=C(CSc3nnnn3C)CSC21` (some centres unmarked) [WYBQ-4], the results for the MIC (in [1]; in test [3]; in the test on MRSA USA300 [4]) were 0.5 mg/L (≈ 0.915 µM), 0.5 mg/L (≈ 0.915 µM) and 8 mg/L (≈ 14.6 µM), respectively. The antibacterial activity entry in the test with Enterococcus faecium, in the test with Gram-negative bacteria and in the test with Enterococcus faecalis was “weak” in each case. Further, the Kd at PBP2a is 28 ± 1.24 µM. Also, the PAE in the test on MSSA ATCC 29213 (2× MIC) is given as 1.5 h; in the test with MSSA ATCC 29213 (8× MIC) it was 3.5 h. Besides, the “bacteriostatic activity (MIC) versus control drugs” value in the test with clinically isolated MRSA and in the test on clinically isolated MSSA was “better bacteriostatic activity than the control drugs” throughout. Moreover, the “protection in systemic infection” value with clinical isolate SA1B2B and in the test with clinical isolate SA28 was “had a protective effect” throughout. For the same compound, the survival rate with MRSA USA300 [2] amounted to 100%.
